Read-outs that look alike come from different tables or passages of the source. Each block holds one compound with its values, some of them ahead of it.
How the values were obtained:
DAP II = assay: Enzyme kinetic study of synthetic substrates with DAP II; type: biochemical; details: pH 5.6, rat pituitary homogenate 13.75 μg/mL protein equivalent, liberated D compound 7-amino-3-phenylcoumarin
Source text: (§1) In use for enzyme analysis, following enzyme cleavage of the bond between the C7 amino group and the A moiety, a detector group is liberated. This detector group is substantially identical to the precursor D moiety (although the amido group at C7 is converted to a primary amino group) and shall be hereinafter referred to as the liberated D compound.
(§2) The liberated D compounds from the above-described inventive synthetic substrates generally fluoresce strongly in the blue to yellow region of the spectrum once irradiated with ultraviolet light, whereas the intact synthetic substrates of the present invention fluoresce more weakly and at shorter wavelengths. The presence of the liberated D compound can be qualitatively or quantitatively determined fluorometrically, or may be utilized in colorimetric assays. Synthetic substrates in accordance with the present invention preferably fluoresce at wavelengths of at least about 460 nm. The FIG. 2 structure, for example, yields a liberated D compound which fluoresces at a wavelength of 472 nm, and the FIG. 3 structure at a wavelength of 505 nm.
The inventive synthetic substrates may be used in enzyme kinetic studies. Table I, below illustrates kinetic data of several synthetic substrates in accordance with the present invention (where the liberated D compound is 7-amino-3-phenylcoumarin) with 3 different enzymes. […]

Trypsin = assay: Enzyme kinetic / reaction rate study of synthetic substrates with trypsin; type: biochemical; details: for 1/V: trypsin, pH8, 37° C., Ex = 420 nm, Em = 485 nm; for Km / Vmax: Trypsin, pH 8.0, 200 ng/mL, liberated D compound 7-amino-3-phenylcoumarin
Source text: as §1, §2
(§3) The inventive synthetic substrates may be used in enzyme kinetic studies. Table I, below illustrates kinetic data of several synthetic substrates in accordance with the present invention (where the liberated D compound is 7-amino-3-phenylcoumarin) with 3 different enzymes.
(§4) Table II, below, tabulates the data from three Lineweaver-Burk plots of reaction rate studies utilizing several of the inventive synthetic substrates.

[1] = Solubility of liberated detector compounds in water; details: in water as solvent, analogous to a buffered solution
[2] = Fluorescence properties of liberated detector compounds; type: physicochemical; details: for Em: fluorescence emission wavelength of detector compound; for Ex: fluorescence excitation wavelength of detector compound; for Rel. Int.: relative fluorescent intensity of detector compound
Source text: The presence of the liberated D compound can be qualitatively or quantitatively determined fluorometrically, or may be utilized in colorimetric assays.

Urokinase = assay: Enzyme kinetic / reaction rate study of synthetic substrates with urokinase; type: biochemical; details: for 1/V: urokinase, pH8, 37° C., Ex = 410 nm, Em = 475 nm
Source text: as §1, §2, §3, §4

[3] = water
[4] = Urokinase, pH 8.0, 2.5 Plough units/ml, liberated D compound 7-amino-3-phenylcoumarin

SMILES: N=C(N)NCCC[C@H](NC(=O)OCc1ccccc1)C(=O)Nc1ccc2cc(-c3ccccc3)c(=O)oc2c1 [Example VIII, 7-(Z-L-Arginamido)-3-phenylcoumarin]
1/V (Trypsin; 1/S = 1.7 (mm)^-1): 1.45 (nmol/ml/min)^-1
1/V (Trypsin; 1/S = 3.3 (mm)^-1): 2.25 (nmol/ml/min)^-1
1/V (Trypsin; 1/S = 6.7 (mm)^-1): 4.3 (nmol/ml/min)^-1
1/V (Trypsin; 1/S = 12.5 (mm)^-1): 7.6 (nmol/ml/min)^-1
1/V (Trypsin; 1/S = 16.6 (mm)^-1): 10.2 (nmol/ml/min)^-1
Km (Trypsin): 574 µM
Vmax (Trypsin): 1.264 nmol/min

SMILES: N=C(N)NCCC[C@H](NC(=O)c1ccccc1)C(=O)Nc1ccc2cc(-c3ccccc3)c(=O)oc2c1 [IX, 7-(Benzoyl-L-arginamido)-3-phenylcoumarin]
1/V (Trypsin; 1/S = 1.1 (mm)^-1): 4.9 (nmol/ml/min)^-1
1/V (Trypsin; 1/S = 1.7 (mm)^-1): 6.0 (nmol/ml/min)^-1
1/V (Trypsin; 1/S = 3.4 (mm)^-1): 10.0 (nmol/ml/min)^-1
1/V (Trypsin; 1/S = 6.7 (mm)^-1): 18.3 (nmol/ml/min)^-1
1/V (Trypsin; 1/S = 12.5 (mm)^-1): 35.0 (nmol/ml/min)^-1
Km (Trypsin): 945 µM
Vmax (Trypsin): 0.414 nmol/min

SMILES: N=C(N)NCCC[C@H](NC(=O)CNC(=O)CNC(=O)OCc1ccccc1)C(=O)Nc1ccc2cc(-c3ccccc3)c(=O)oc2c1 [Example X, 7-(Z-Glycylglycyl-L-arginamido)-3-phenylcoumarin]
1/V (Urokinase; 1/S = 1 (mm)^-1): 11 (nmol/ml/min)^-1
1/V (Urokinase; 1/S = 2 (mm)^-1): 13 (nmol/ml/min)^-1
1/V (Urokinase; 1/S = 3.5 (mm)^-1): 17 (nmol/ml/min)^-1
1/V (Urokinase; 1/S = 5 (mm)^-1): 22 (nmol/ml/min)^-1
1/V (Urokinase; 1/S = 8.25 (mm)^-1): 36 (nmol/ml/min)^-1
1/V (Urokinase; 1/S = 11 (mm)^-1): 42 (nmol/ml/min)^-1
1/V (Urokinase; 1/S = 12.25 (mm)^-1): 50 (nmol/ml/min)^-1
1/V (Urokinase; 1/S = 14.25 (mm)^-1): 51 (nmol/ml/min)^-1
Km (Urokinase; [4]): 411 µM
Vmax (Urokinase; [4]): 0.137 nmol/min

SMILES: N=C(N)NCCC[C@H](NC(=O)OCc1ccc([N+](=O)[O-])cc1)C(=O)Nc1ccc2cc(-c3ccccc3)c(=O)oc2c1 [Example XII, 7-(4-NO2 -Z-L-Arginamido)-3-phenylcoumarin]
Km (Trypsin): 193 µM
Vmax (Trypsin): 0.174 nmol/min

Now from value to compound:

Km (DAP II): 321 µM
Vmax (DAP II): 0.346 nmol/min
SMILES: Br.Br.C[C@H](NC(=O)[C@@H](N)CCCCN)C(=O)Nc1ccc2cc(-c3ccccc3)c(=O)oc2c1.O [Example VII, 7-(L-Lysyl-L-alaninamido)-3-phenylcoumarin Dihydrobromide Monohydrate]

Sol. [1]: 0.0012 mg/mL
Em [2]: 472 nm
Ex [2]: 368 nm
Rel. Int. [2]: 4.0
SMILES: Nc1ccc2cc(-c3ccccc3)c(=O)oc2c1 [7-amino-3-phenyl coumarin, 7-amino-3-phenylcoumarin]

Em [2]: 500 nm
Ex [2]: 390 nm
Rel. Int. [2]: 1.0
Sol. [3]: 0.017 mg/mL
SMILES: Nc1ccc2c(C(F)(F)F)cc(=O)oc2c1 [7-amino-4-trifluoro-methyl coumarin, 7-amino-4-trifluoromethylcoumarin, reference compound]

Reference: US4388233A, “Synthetic substrates for enzyme analysis” (priority 1981, dated 1983)
